From US20260216206A1 (MEDINCELL SA, priority 2023, published 2026)

What was measured:
[1] = after oral administration; cited from earlier work
[2] = Open-label SAD and MAD study, safety and tolerability in healthy subjects and patients (Example 5); format: in vivo, humans; conditions: washout period following oral olanzapine, 4/127
Experimental: (§1) This study was an open-label, SAD, and MAD study to evaluate the safety, tolerability, and PK of Formulation 1 in healthy subjects and patients with a diagnosis of schizophrenia or schizoaffective disorder. Healthy subjects received subtherapeutic Formulation 1 doses of up to 105 mg and patients received therapeutic doses of up to 566 mg. […] Subjects and patients who met screening eligibility were assigned to 1 of 8 active cohorts, or the Vehicle Cohort, as detailed in Table 5.1 below.
Safety was assessed during the study by evaluating AEs, clinical laboratory test results (serum, hematology, urinalysis, and prolactin), vital signs measurements, ECG, physical examination, injection site pain, local tolerability, and leakage assessment. […]
The safety endpoints in this study included incidence of adverse events, changes from baseline in ECG parameters, selected clinical laboratory values (including prolactin) and vital signs, as well as changes in neurological and clinical symptom assessments (eg, PANSS, ESRS, AIMS, BARS, CGI-S, C-SSRS), and other safety measures that were evaluated throughout the study.

[3] = Open-label SAD and MAD study, pharmacokinetics in healthy subjects and patients (Example 5); format: in vivo, humans; conditions: oral, 2.5 to 20 mg/day for 7 days, steady-state
Experimental: as §1
All cohorts included assessments of safety, tolerability, and intensive PK sampling.
Except for the starting dose of 70 mg, the study followed an adaptive design in which the decision to dose-escalate with Formulation 1 was based on a review of the PK and safety data from the preceding lower dose of Formulation 1.
An extensive PK collection scheme was applied following the last oral dose to fully characterize the PK at steady-state.
In multiple-dose cohorts, the 3 doses of Formulation 1 were administered on day 1, day 29 (week 4) and day 57 (week 8), respectively.

Cc1cc2c(s1)Nc1ccccc1N=C2N1CCN(C)CC1 [olanzapine, 2-methyl-4-(4-methyl-1-piperazinyl)-10H-thieno[2,3-b][1,5]benzodiazepine]
Half life [1]: approximately 30 hours
Participants withdrawn due to adverse events [2]: 3.1%
Systemic exposure (Cmax, AUCt,ss) versus dose [3]: dose-proportional
